Results taken from patent US8465808B2, “Process for depositing an organic acid on the surface of a metal composition” (Duquesne University of the Holy Spirit, priority 2005, dated 2013).

How the values were obtained:
[1] = Static contact angle goniometry with water on modified SS316L; type: physicochemical; conditions: SAM of the acid on SS316L; for Contact angle values: static, average of at least 3 samples, 6 readings each
Procedure: Static contact angles were measured using VCA Optima Goniometry to determine the wettability of the surface. Measurements were made using the procedure described by Bain et al. (J. Am. Chem. Soc. 1989; Vol. 111, pgs. 321-335), known by those skilled in the art. About 1 μl drop of deionized water (purified with a Millipore Milli Q plus system) was formed at the end of the micro-liter syringe and brought into contact with the surface. Average contact angle value±standard deviation of 6 readings each on at least 3 samples have been reported.

[2] = system: 3T3 Swiss Albino embryo fibroblast cells; test: Live/dead viability of cells on modified SS316L substrates; type: cell-based; conditions: 3T3 fibroblasts, 10,000 cells/well, 24 hours on SAM-modified SS316L
Procedure: For cell experiments, 3T3 Swiss Albino embryo fibroblast cells of mouse were obtained from ATCC (CCL-92). The cells were grown in Dulbecco's modified Eagle medium (DMEM, Invitrogen Corp.) supplemented with 10% calf serum, 1% penicillin/[…] antibiotic. The cells were passaged every 3 days and were discarded after 15 passages. Cells were removed from the T 75 flasks by trypsinization, washed once with DMEM, suspended in culture medium. The modified SS316L substrates were placed in a 24 well plate and were sterilized with 70% ethanol for 10 mins and then rinsed with sterile distilled water 3 times. The sterilized substrates were left in the hood to dry. The suspended 3T3 Swiss Albino embryo fibroblast cells were then counted with a Haemocytometer after staining them with trypan blue and seeded at the density of 10,000 cells/well into each of the wells containing the substrates modified with respective acids After incubating the cells in humidified air with 5% CO2 for 24 hours at 37° C., the samples were rinsed with PBS three times and analyzed for live dead cells. […] This calcein is retained in the live cells and produces a green fluorescence. Ethidium homodimer is excluded by the intact plasma membrane of live cells but enters cells with damaged membranes (dead cells), binds to nucleic acid and produces a bright red fluorescence. […]

[3] = system: 3T3 Swiss Albino embryo fibroblast cells; test: Cell adhesion (number of cells attached) on modified SS316L substrates; type: cell-based, mouse; conditions: 3T3 cells, 24 hours, fluorescence microscopy
Procedure: For cell experiments, 3T3 Swiss Albino embryo fibroblast cells of mouse were obtained from ATCC (CCL-92). The cells were grown in Dulbecco's modified Eagle medium (DMEM, Invitrogen Corp.) supplemented with 10% calf serum, 1% penicillin/[…] antibiotic. The cells were passaged every 3 days and were discarded after 15 passages. Cells were removed from the T 75 flasks by trypsinization, washed once with DMEM, suspended in culture medium. The modified SS316L substrates were placed in a 24 well plate and were sterilized with 70% ethanol for 10 mins and then rinsed with sterile distilled water 3 times. The sterilized substrates were left in the hood to dry. The suspended 3T3 Swiss Albino embryo fibroblast cells were then counted with a Haemocytometer after staining them with trypan blue and seeded at the density of 10,000 cells/well into each of the wells containing the substrates modified with respective acids After incubating the cells in humidified air with 5% CO2 for 24 hours at 37° C., the samples were rinsed with PBS three times and analyzed for live dead cells. Viability/cytotoxicity kit (L-3224) obtained from Molecular Probes was used to provide a simultaneous determination of live and dead cells. The assay contains Calcein AM and ethidium homodimer dyes. The live cells are identified by the enzymatic conversion of the non-fluorescent cell permeant calcein AM to intensely fluorescent calcein. This calcein is retained in the live cells and produces a green fluorescence. Ethidium homodimer is excluded by the intact plasma membrane of live cells but enters cells with damaged membranes (dead cells), binds to nucleic acid and produces a bright red fluorescence. Live cells are in green and dead cells in red when viewed under fluorescent microscope.
After washing with PBS, 0.5 ml of the live/dead stain was added to each well and the well plate was covered with aluminum foil and placed in the incubator for about 30 minutes. Three samples of each type of modification were used for every set and four such sets were performed. Each sample was mounted on the microscope slide and viewed under fluorescence Nikon Eclipse microscope at 10× magnification. Five different spots were observed and counted for cells on each sample and average value used for calculation of significance. Viability calculations were performed on each sample by counting the number of live cells in the total number of cells.
ANOVA was used to determine the statistical difference between the means of data sets for cell experiments with the modified substrates and multiple comparisons of the sample means was performed using Bonferroni post test using confidence level of 0.05.
In order to determine the stability of the interfacial systems developed in this work under physiological conditions and their viability for use in biomedical devices (and more specifically medically implantable devices), cell adhesion studies using fibroblasts were conducted on four sets of independent experiments with three samples each of all functionalized SAM with carboxylate and phosphonate head groups. The substrates were modified with —CH3, —COOH, —OH terminated phosphonic acids and —CH3, —OH, —COOH and —NH2 terminated carboxylic acids by the solution deposition process of the present invention as set forth herein. […] The samples were then rinsed with PBS three times and analyzed for live dead cells using the Viability/cytotoxicity kit. […]

[4] = cited from earlier work

With “12-aminododecanecarboxylic acid [C12NH2—C]” the “Contact angle compared with control SS316L substrate” value [1] was “lower contact angle values than the control”.
In the case of O=P(O)(O)CCCCCCCCCCCO [C11OH—P, 11-hydroxyundecanephosphonic acid], the “Viability (live cells / total number of cells)” value [2] is reported as “about 92%” and the Contact angle values [1] is reported as 59.8°.
In the case of O=C(O)CCCCCCCCCCCCP(=O)(O)O [C12COOH—P, 12-carboxydodecanephosphonic acid], the Contact angle values [1] is reported as 52.3°.
For NCCCCCCCCCCCCC(=O)O [C12NH2—C, 12-aminododecanecarboxylic acid], the Contact angle values [1] was 38.4° and the “Number of cells attached to the modified SS316L (in words)” value (“Number of cells attached” below) [3] was “close to that in the control”.
For O=C(O)CCCCCCCCCCCCC(=O)O [C14COOH—C, 1,12-dodecanedicarboxylic acid], the “Contact angle compared with control SS316L substrate” value [1] was “lower contact angle values than the control” and the Contact angle values [1] was 42°.
With O=C(O)CCCCCCCCCCCCCCCO [C16OH—C, 16-hydroxyhexadecanoic acid] the “Contact angle compared with control SS316L substrate” value [1] was “lower contact angle values than the control” and the Contact angle values [1] was 48.6°.
For CCCCCCCCCCCCCCCCCC(=O)O [Heptadecyl Carboxylic acid], the pKa [4] is listed as “pKa = 10”.
With CCCCCCCCCCCCCCCCCCC(=O)O [ODCA, octadecylcarboxylic acid] the Contact angle values [1] was 104.1°, the Contact angle values ([1]; listed as Octadecylcarboxylic acid) was 104 ° and the “Shape of the cells on the surface” value [3] was “rounded and small”. The pKa [4] was “pKa = 10”.
In the case of CCCCCCCCCCCCCCCCCCP(=O)(O)O [ODPA, octadecylphosphonic acid], the “Viability (live cells / total number of cells)” value [2] is reported as “about 92%”, the Contact angle values [1] is reported as 108° and the “Number of cells attached” value [3] is reported as “fewer cell attachments than ODCA”. The “Shape of the cells on the surface” value [3] was “rounded and small”, the “Number of cells attached” value ([3]; listed as methyl terminated phosphonic acid) was “the least in number” and the pKa [4] was “pka = 4”.
For CCCCCCCCCCCCCCCCCCS(=O)(=O)O [Octadecyl sulfonic acid], the pKa [4] is given as “pKa = 2”.
